Test results: PMC11241262, “Unravelling the Antifibrinolytic Mechanism of Action of the 1,2,3-Triazole Derivatives” (International Journal of Molecular Sciences, 2024)

Test: Pharmacokinetic study in Wistar rats
Format: in vivo
Conditions: for Mortality: PK2 2.5 mg/kg iv, 9 rats; for AUC / Cmax / Tmax / Vd / clearance / half-life: iv
Method: A pharmacokinetic study was performed for compound 5 in Wistar rats and Beagle dogs. For rats, a total of 35 male and 35 female rats were used for the study. At initiation of the dosing, rats were 9 to 10 weeks old and the body weight variation among rats was within ±20% of the mean body weight for each sex. […] Food and filtered water were provided ad libitum. During randomization, 30 male and 30 female rats were selected for the study and randomly allocated to the 4 different groups. The remaining 5 male and 5 female rats were returned to the animal facility. Rats were observed twice daily for morbidity, mortality, and clinical signs during the whole study period. Rats were euthanized after last blood collection time point by carbon dioxide asphyxiation. Sterile water served as a vehicle to dissolve compound 5 and the resulting formulations were administered right after preparation. Dose formulations were administered to rats via an intravenous bolus injection through the tail vein, using a sterile needle attached to a graduated syringe. A fixed volume of 5 mL/kg body weight was administered. Individual doses were adjusted based on the most recent recorded body weight of each rat. Four dose levels were selected: vehicle control (PK1), 2.5 mg/kg (PK2), 5 mg/kg (PK3), and 10 mg/kg (PK4).
Pharmacokinetic assessment of compound 5 was conducted on the day of dosing at multiple time points: 0 h (pre-dose), 5 min, 15 min, 0.5 h, 1 h, 2 h, 4 h, 6 h, 10 h, and 24 h post-dosing for PK2, PK3, and PK4 rats. At each time point, samples were only obtained from a subset of 3 rats. For the PK1 group, samples were collected at 0 h and at 24 h post-dosing. Blood samples (400 µL) were collected into heparin sodium tubes from the retro-orbital plexus under very light isoflurane anesthesia. Samples were inverted 4 to 5 times and placed on ice and then centrifuged at 3500 rpm for 15 min at 8 °C for plasma extraction. Plasma was transferred to Eppendorf tubes and stored at −70 ± 10 °C until assayed. The concentration of compound 5 was analyzed in plasma using High-Performance Liquid Chromatography. […] The mobile phase consisted of acetonitrile (A) and 2 mM ammonium Formate in Mili-Q water (B) with an isocratic elution mode. Pharmacokinetic analysis of the concentration of compound 5 in plasma was performed using the non-compartmental model of the WinNonlin® software version 8.1 at JRF. The group mean values of plasma concentration were analyzed to obtain different pharmacokinetics parameters, including Cmax (maximum peak concentration), Tmax (time of maximum peak concentration), AUC (area under the concentration–time curve, Cl (clearance), Vd (volume of distribution), Kel (elimination rate constant), and T1/2 (terminal half-life).

[1] = female, Wistar, rat, in vivo, 2.5 mg/kg
[2] = female, Wistar, rat, in vivo, 5 mg/kg
[3] = female, Wistar, rat, in vivo, 10 mg/kg
[4] = male, Wistar, rat, in vivo, 2.5 mg/kg
[5] = male, Wistar, rat, in vivo, 5 mg/kg
[6] = male, Wistar, rat, in vivo, 10 mg/kg

With `O=c1[nH]nc(-c2cn(C3CCNCC3)nn2)o1` [compound 5] the Mortality (female) was 0 number of rats, the Mortality (male) was 0 number of rats and the elimination halftime (both, Wistar (rat), Beagle (dog), rat, in vivo) was 2 to 3 h. It also gave an AUC [1] of 3630 ng·h/mL, a Cmax [1] of 8660 ng/mL and a Tmax [1] of 4.8 min. The Vd [1] was 1.91 L/kg, the clearance [1] was 11.5 mL/min/kg and the half-life [1] was 115 min. It also gave an AUC [2] of 7040 ng·h/mL, a Tmax [2] of 4.8 min and a Vd [2] of 2.03 L/kg. For the same compound, the clearance [2] was 11.8 mL/min/kg, the half-life [2] was 119 min and the AUC [3] was 13600 ng·h/mL. For the same compound, the Tmax [3] was 4.8 min, the Vd [3] was 2.37 L/kg and the clearance [3] was 12.2 mL/min/kg. It also gave a half-life [3] of 134 min, an AUC [4] of 3430 ng·h/mL and a Cmax [4] of 8280 ng/mL. The Tmax [4] was 4.8 min, the Vd [4] was 2.52 L/kg and the clearance [4] was 12.2 mL/min/kg. It also gave a half-life [4] of 145 min, an AUC [5] of 6530 ng·h/mL and a Cmax [5] of 15100 ng/mL. It also gave a Tmax [5] of 4.8 min, a Vd [5] of 6.01 L/kg and a clearance [5] of 12.7 mL/min/kg. For the same compound, the half-life [5] was 327 min, the AUC [6] was 12200 ng·h/mL and the Cmax [6] was 26300 ng/mL. The Tmax [6] was 4.8 min, the Vd [6] was 6.65 L/kg and the clearance [6] was 13.7 mL/min/kg. For the same compound, the half-life [6] was 337 min, the Cmax (rat, in vivo, 5 mg/kg) was 16,634 and the Cmax (rat, in vivo, 10 mg/kg) was 30,839.
